Assay results taken from US8057829B2, “Methods for repelling insects using sesquiterpene hydrocarbons and their derivatives” (Sterling International Inc., priority 2008, dated 2011).

What was measured:
[1] = system: antennae of Musca domestica, Lucillia sericata, Sarcophaga sp., Muscina stabulans, Culex pipiens, Aedes increpitus; experiment: GC-EAD responses of several flies and two mosquitoes to a synthetic mixture; conditions: about 100 ng of each compound, FIG. 6
Protocol: The GC-EAD responses of several species of flies and two species of mosquito antennae were tested on a synthetic mixture of 1-octen-3-ol, linalool, two representative sesquiterpene hydrocarbons, β-caryophyllene and α-humulene, ZE-nepetalactone, EZ-nepetalactone, and two known insect repellents, DEET, and SS220, with about 100 ng of each compound in the mixture. DEET and SS220 are used as positive controls in the experiment. The compound 1-octen-3-ol is a known attractant for the insects and is also used as a positive control. The insects tested are species of Musca domestica, Lucillia sericata, Sarcophaga sp., Muscina stabulans, Culex pipiens, and Aedes increpitus.
The following procedures were employed to test the EAD response of an insect antenna to a repellent compound. The GC-EAD technique provides an efficient tool for screening behaviorally active repellents. Several synthetic mixtures of potential insect repellent candidates, mostly sesquiterpene hydrocarbons and derivatives, were analyzed in splitless mode using a Varian CP-3800 GC equipped with a polar column (Innowax; 1.0 μm film thickness, 30 m×0.53 mm ID; J & W Scientific), and a 1:1 effluent splitter that allowed simultaneous flame ionization detection (FID) and EAD of the separated volatile compounds. Helium was used as the carrier gas, and the injector temperature was 220° C. The column temperature was 50° C. for 2 min, rising to 240° C. at 10° C./min, then held for 10 min. The outlet for the EAD was held in a humidified air stream flowing at 0.5 liter/min. over an antennal preparation. A glass capillary indifferent electrode filled with Beadle-Ephrussi Ringer, and grounded via a silver wire, was inserted into the severed insect's head with the antennae. A similar recording electrode connected to a high-impedance DC amplifier with automatic baseline drift compensation was placed in contact with the distal end of one antenna (Zhang et al., Chemoecology, 10:69-80 (2000)). The antennal signals were stored and analyzed on a PC equipped with a serial IDAC interface box and the program EAD ver. […]

[2] = system: housefly (Musca domestica) antenna; experiment: GC-EAD antennal response, housefly; conditions: female housefly antenna; synthetic mixture, about 100 ng of each compound; FIG. 3
Text: The sesquiterpene hydrocarbons and their derivatives disclosed herein have been identified as suitable insect repellents by testing via a gas chromatographic-electroantennographic detection (GC-EAD) method as described in Example 1 below. This method can be used to efficiently screen for potentially behaviorally active compounds, including insect repellents, attractants, deterrents, or attraction-inhibitors from complex natural sources or synthetic mixtures.
The GC-EAD responses of the female housefly antenna were tested on a synthetic mixture of 1-octen-3-ol, a known attractant used as a positive control, and representative sesquiterpene hydrocarbons and derivatives, (+)-longipinene, (−)-isolongifolene, (+)-longifolene, β-caryophyllene, α-humulene, and isolongifolenone, with about 100 ng of each compound in the mixture.
The GC-EAD responses of the male housefly antenna were tested on a synthetic mixture of 1-octen-3-ol, and two representative sesquiterpenes, β-caryophyllene and isocaryophyllene, with about 100 ng of each compound in the mixture.
(§1) The following procedures were employed to test the EAD response of an insect antenna to a repellent compound. The GC-EAD technique provides an efficient tool for screening behaviorally active repellents. Several synthetic mixtures of potential insect repellent candidates, mostly sesquiterpene hydrocarbons and derivatives, were analyzed in splitless mode using a Varian CP-3800 GC equipped with a polar column (Innowax; 1.0 μm film thickness, 30 m×0.53 mm ID; J & W Scientific), and a 1:1 effluent splitter that allowed simultaneous flame ionization detection (FID) and EAD of the separated volatile compounds. Helium was used as the carrier gas, and the injector temperature was 220° C. The column temperature was 50° C. for 2 min, rising to 240° C. at 10° C./min, then held for 10 min. The outlet for the EAD was held in a humidified air stream flowing at 0.5 liter/min. over an antennal preparation. A glass capillary indifferent electrode filled with Beadle-Ephrussi Ringer, and grounded via a silver wire, was inserted into the severed insect's head with the antennae. A similar recording electrode connected to a high-impedance DC amplifier with automatic baseline drift compensation was placed in contact with the distal end of one antenna (Zhang et al., Chemoecology, 10:69-80 (2000)). The antennal signals were stored and analyzed on a PC equipped with a serial IDAC interface box and the program EAD ver. 2.5 (Syntech, Hilversum, The Netherlands). The compound 1-octen-3-ol (known attractant for many flies and mosquitoes) was included in most of the synthetic mixtures, as a positive control. The results of the experiments are shown in FIGS. 1-10 and described above.

[3] = system: female antennae of sand fly Phlebotomus papatasi and mosquitoes Aedes aegypti, Anopheles gambiae, Anopheles stephensi; experiment: GC-EAD responses of sand fly and three mosquitoes to synthetic mixtures; conditions: about 100 ng of each compound, on one or more of the sand fly or the mosquitoes, FIGS. 9 and 10
Protocol: The GC-EAD responses of female antennae of the sand fly, Phlebotomus papatasi, and three species of mosquitoes, Aedes aegypti, Anopheles gambiae, and anopheles stephensi were tested on a synthetic mixture of 1-octen-3-ol, six sesquiterpene hydrocarbons including (+)-longipinene, (−)-isolongifolene, (+)-longifolene, β-caryophyllene, isolongifolenone, and α-humulene, and several known insect repellents including ZE-nepetalactone, EZ-nepetalactone, with about 100 ng of each compound in the mixture.
The GC-EAD responses of female antennae of the sand fly, Phlebotomus papatasi, and three species mosquitoes, Aedes aegypti, Anopheles gambiae, and anopheles stephensi were tested on a synthetic mixture of 1-octen-3-ol, linalool, β-caryophyllene oxide, isocaryophyllene, β-caryophyllene, and α-humulene, and DEET, with about 100 ng of each compound in the mixture.
as §1

[4] = system: antennae of housefly, sand fly, and mosquitoes Aedes aegypti, Anopheles gambiae, Anopheles stephensi; experiment: GC-EAD antennal responses to SPME samples of clove essential oil; conditions: component of clove essential oil SPME sample; response by one or more of the insects; FIG. 1
Protocol: The GC-EAD antennal response of a female housefly (Musca domestica), sand fly (Phlebotomus papatasi), and mosquitoes including the species Aedes aegypti, Anopheles gambiae, and Anopheles stephensi were tested with clove essential oil. FIG. 1 is a simultaneous recording of GC flame ionization detection (FID) and electroantennographic detection (EAD) of the insect antennae to solid phase microextraction (SPME: CAR/PDMS) samples of clove essential oil in a 20 ml glass vial for 20 sec.
as §1, with “The results of the experiments are shown in FIGS. 1-10 and described above.” left out

[5] = system: male false stable fly Muscina stabulans antenna and female mosquito Aedes (Ochlerotatus) increpitus Dyar antenna; experiment: GC-EAD responses of false stable fly and Aedes increpitus to a synthetic mixture; conditions: about 100 ng of each compound, FIG. 5
Protocol: The GC-EAD responses of the male false stable fly Muscina stabulans antenna and the female mosquito Aedes (Ochlerotatus) increpitus Dyar antenna were tested on a synthetic mixture of linalool and two representative sesquiterpene hydrocarbons, β-caryophyllene and α-humulene, and one sesquiterpene oxide, β-caryophyllene oxide, with about 100 ng of each compound in the mixture.
as §1

houseflies = experiment: Laboratory sticky trap bioassay of spatial repellency with egg powder attractant; format: in vivo, housefly (Musca domestica)
Protocol: Laboratory bioassay tests were carried out to investigate the efficacy of some of the EAD-active compounds described above to act as spatial repellents against several insects. The procedure for the bioassay tests is described in Example 2 below. Briefly stated, the bioassay included using egg powder (EP) as an attractant for flies, while the compound whose insect repellency was being tested was placed in proximity to the egg powder. In FIGS. 11-13, the bioassay was carried out on houseflies using devices known by the designation Trécé Pherocon® VI sticky traps.
The following lab bioassay tests were employed to illustrate the efficacy of the compounds to effectively act as spatial repellents for flies. Three sets of tests were conducted in a fly testing room (23° C., 70% RH, and 12/12 (L/D) light regime illuminated by fluorescent lights). Two sets of tests were carried out using Trécé Pherocon® VI traps with sticky inserts, which were set up on poles evenly spaced on a rotating table. The traps were ca. 1 m above a table surface, and ca. 1 m apart from each other. Two grams of egg powder in a white cap (4 cm in diameter, 0.5 cm in height) used as an attractant was put on the center of the sticky insert in the sticky trap. The potential repellent candidate chemicals were loaded into polyethylene bags, and were hung under the inner roof of the traps, 1-1.5 cm above the egg powder attractant. A control had the empty white cap and blank polyethylene bag, while the positive control had only the egg powder and an empty polyethylene bag. The test table was rotated 1.5 r.p.h. […] About 200-300 houseflies (2-3 days old) were released into the testing room for each test. Tests were normally run from 8:00 am to 5:00 pm, and the numbers of houseflies caught in each trap were counted after each test. The results of these tests are shown in FIGS. 11-13 and described above.

Row | SMILES | GC-EAD antennal activity [1] | GC-EAD antennal activity [2] | GC-EAD antennal activity [3] | GC-EAD antennal activity [4] | GC-EAD antennal activity [5] | number of house flies per trap (houseflies; egg powder attractant plus repellent, FIG. 11, egg powder alone 44) [house flies per trap] | repellency against houseflies, in words (houseflies; laboratory trap bioassay with egg powder attractant)
1 | C/C1=C\CC/C(C)=C/CC(C)(C)/C=C/C1 [α-humulene] | active on at least one of the insects tested | active | antennally active | EAD-active | active on at least one of the insects tested |  | 
2 | C=CC(C)(O)CCC=C(C)C (stereo not shown) [linalool, 3,7-dimethyl-3-hydroxy-1,6-octadiene] | active on at least one of the insects tested |  | antennally active |  | active on at least one of the insects tested | 5.5 | effective housefly repellents
